Data from patent publication US5234947A, “Potassium channel activating compounds and methods of use thereof” (New York University, priority 1991, dated 1993).
Entries after “also recorded” stand apart in the source; their conditions may differ.

What was measured:
[1] = craving for a cigarette; type: in vivo; conditions: cigarette smoking
From the text: The interference with the effects of withdrawal symptoms from addictive substances of the subject compounds is also consistent with potassium channel activation. […] As one gets a craving for a cigarette, there is a perception of muscular tension. The effects of potassium channel activators are to lower the blood pressure, relax the muscles and make breathing easier, all of which counteracts the feeling of craving one experiences upon withdrawal from an addictive substance.

[2] = target: T1, large 200-220 pS channel (large Ca++-dependent K+ channel) (Rattus norvegicus, UniProt Q62976); assay: lipid bilayer technique, rat brain membranes fused with a bilayer on a patch-clamp pipette; type: biochemical
T1 construct: single-channel recording
T1 sequence (Q62976 whole entry, the tested form may be a part): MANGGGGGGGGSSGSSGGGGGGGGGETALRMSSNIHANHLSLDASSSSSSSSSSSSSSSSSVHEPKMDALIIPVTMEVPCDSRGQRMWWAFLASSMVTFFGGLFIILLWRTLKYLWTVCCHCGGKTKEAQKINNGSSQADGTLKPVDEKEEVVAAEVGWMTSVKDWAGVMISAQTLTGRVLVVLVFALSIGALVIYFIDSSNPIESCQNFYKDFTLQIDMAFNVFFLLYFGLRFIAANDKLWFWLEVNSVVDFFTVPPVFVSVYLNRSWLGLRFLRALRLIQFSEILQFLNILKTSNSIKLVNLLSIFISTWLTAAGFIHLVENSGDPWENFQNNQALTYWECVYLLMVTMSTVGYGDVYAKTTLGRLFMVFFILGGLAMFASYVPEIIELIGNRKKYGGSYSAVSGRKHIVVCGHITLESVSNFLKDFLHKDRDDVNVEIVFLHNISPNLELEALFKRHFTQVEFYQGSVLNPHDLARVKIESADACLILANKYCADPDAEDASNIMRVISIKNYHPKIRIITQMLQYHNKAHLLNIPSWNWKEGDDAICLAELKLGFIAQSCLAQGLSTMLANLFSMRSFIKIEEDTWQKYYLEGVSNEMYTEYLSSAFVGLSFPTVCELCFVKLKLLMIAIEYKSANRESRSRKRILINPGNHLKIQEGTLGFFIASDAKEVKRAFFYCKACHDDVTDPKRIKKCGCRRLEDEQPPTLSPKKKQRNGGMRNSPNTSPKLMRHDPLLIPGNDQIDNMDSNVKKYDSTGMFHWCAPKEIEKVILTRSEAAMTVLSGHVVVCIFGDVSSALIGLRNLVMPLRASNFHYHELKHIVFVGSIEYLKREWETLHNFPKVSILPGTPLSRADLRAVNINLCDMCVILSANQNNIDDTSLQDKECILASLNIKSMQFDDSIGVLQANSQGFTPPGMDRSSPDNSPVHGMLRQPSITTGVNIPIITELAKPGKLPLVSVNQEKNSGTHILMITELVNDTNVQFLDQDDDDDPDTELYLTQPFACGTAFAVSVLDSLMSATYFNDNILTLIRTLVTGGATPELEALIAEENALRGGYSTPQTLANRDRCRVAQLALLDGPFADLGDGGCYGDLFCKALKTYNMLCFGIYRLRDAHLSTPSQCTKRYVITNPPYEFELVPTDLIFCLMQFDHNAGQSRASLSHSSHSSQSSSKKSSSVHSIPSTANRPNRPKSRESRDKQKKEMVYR
Experimental: Isolated avena pyrone was studied for its action against ionic channels in cell membranes using the lipid bilayer technique. Membranes from rat brain were fused with a lipid bilayer formed across the opening of a patch-clamp pipette. Electrical activity was monitored using an Axon Instruments Axopatch amplifier using 100 mM symmetrical KCl solutions. In the presence of elevated levels of calcium, at least three types of potassium channel can be determined: a small 25-50 pS channel, a 90-120 pS channel, and a large 200-220 pS channel. In the absence of calcium in the bathing solutions, openings of the large 200 pS channel are rarely seen.
FIGS. 1 and 2 show the exposure of the channels to potassium in the presence of avena pyrone. In the two tracings in FIG. 1, the membrane potential was held at -25 mV. Under these conditions, the mid-sized K^+ channel is very active but the large channel is rarely open during the approximately 1.5 seconds shown. […] The effect is most pronounced under low calcium conditions.

[3] = tested on: potassium channel; assay: potassium channel activation (method not described); type: biochemical

SMILES | craving for a cigarette [1] | activation of the large K+ channel ([2]; absence of calcium / low calcium, 100 mM symmetrical KCl, membrane potential -25 mV) | open times of the large channel ([2]; avena pyrone added to the bath, -25 mV) | open probability of the large channel ([2]; avena pyrone added to the bathing solution) | activation of the large channel ([2]; conditions of greater calcium concentration) | potassium channel activation [3]
CC1CCCC(=O)O1 (stereo not drawn) [avena pyrone, 2H-6-methyltetrahydropyran-2-one] | reduce the craving for a cigarette | activation of the large K^+ channel is seen; also recorded: the large channel was activated | very long open times; also recorded: increased from a few milliseconds to times approaching seconds | increased open probability; also recorded: substantially increasing the open probability | still capable of activation of the channel but to a lesser degree | –
COC1=CC(=O)O[C@@H](/C=C/c2ccccc2)C1 [kawain] | – | – | – | – | – | potassium channel activating substance
